From patent publication US12565489B2, “Heterocyclyl pyrimidines and triazines as novel fungicides” (Bayer Aktiengesellschaft, priority 2020, dated 2026) come the findings set out here.

The test system of series [1] is Botrytis cinerea. Nature of the series: In vivo preventive test on Botrytis cinerea (grey mould). To be noted: 500 ppm of active ingredient, preventive spray on young gherkin or cabbage plants, evaluated 4 to 5 days after inoculation, read-out: efficacy. The protocol: The active ingredients were made soluble and homogenized in a mixture of Dimethyl sulfoxide/Acetone//Tween®80 and then diluted in water to the desired concentration. The young plants of gherkin or cabbage were treated by spraying the active ingredient prepared as described above. Control plants were treated only with an aqueous solution of Acetone/Dimethyl sulfoxide/Tween® 80. After 24 hours, the plants were contaminated by spraying the leaves with an aqueous suspension of Botrytis cinerea spores.

The subject of series [2] is Colletotrichum lindemuthianum. As to the kind of experiment: Colletotrichum lindemuthianum in vitro cell test. In kind it is cell-based. To be noted: 144 h, 20 ppm of active ingredient, 6 days incubation, liquid culture, spectrometric measurement of mycelium growth, read-out: efficacy (inhibition of fungal growth). How it is done:
(§1) • Solvent: DMSO • Culture medium: 14.6 g anhydrous D-glucose (VWR), 7.1 g Mycological Peptone (Oxoid), 1.4 g granulated Yeast Extract (Merck), QSP 1 liter • Inoculum: spore suspension Fungicides were solubilized in DMSO and the solution used to prepare the required range of concentrations. […] A spore suspension of C. lindemuthianum was prepared and diluted to the desired spore density. Fungicides were evaluated for their ability to inhibit spores germination and mycelium growth in liquid culture assay. The compounds were added in the desired concentration to the culture medium with spores. After 6 days incubation, fungi-toxicity of compounds was determined by spectrometric measurement of mycelium growth. Inhibition of fungal growth was determined by comparing the absorbance values in wells containing the fungicides with the absorbance in control wells without fungicides.

Series [3] is described as follows: Measurement of Log P values by HPLC on reversed phase columns (EEC directive 79/831 Annex V.A8). In kind it is physicochemical. To be noted: LogP. How it is done:
Measurement of Log P values as provided herein was performed according to EEC directive 79/831 Annex V.A8 by HPLC (High Performance Liquid Chromatography) on reversed phase columns with the following methods: • ^[a] Log P value is determined by measurement of LC-UV, in an acidic range, with 0.1% formic acid in water and acetonitrile as eluent (linear gradient from 10% acetonitrile to 95% acetonitrile). • ^[b] Log P value is determined by measurement of LC-UV, in a neutral range, with 0.001 molar ammonium acetate solution in water and acetonitrile as eluent (linear gradient from 10% acetonitrile to 95% acetonitrile). • ^[c] Log P value is determined by measurement of LC-UV, in an acidic range, with 0.1% phosphoric acid and acetonitrile as eluent (linear gradient from 10% acetonitrile to 95% acetonitrile).
If more than one Log P value is available within the same method, all the values are given and separated by “+”.
Calibration was done with straight-chain alkan2-ones (with 3 to 16 carbon atoms) with known Log P values (measurement of Log P values using retention times with linear interpolation between successive alkanones). Lambda-max-values were determined using UV-spectra from 200 nm to 400 nm and the peak values of the chromatographic signals

The test system of series [4] is Sphaerotheca fuliginea. Nature of the series: In vivo preventive test on Sphaerotheca fuliginea (powdery mildew on cucurbits). To be noted: Podosphaera fuliginea, 192 h; 500 ppm of active ingredient; preventive spray on young gherkin plants; evaluated 8 days after inoculation; read-out: efficacy. The protocol:
The active ingredients were made soluble and homogenized in a mixture of Dimethyl sulfoxide/Acetone//Tween®80 and then diluted in water to the desired concentration. The young plants of gherkin were treated by spraying the active ingredient prepared as described above. Control plants were treated only with an aqueous solution of Acetone/Dimethyl sulfoxide/Tween® 80. After 24 hours, the plants were contaminated by spraying the leaves with an aqueous suspension of Sphaerotheca fuliginea spores.

Series [5] relates to Pyricularia oryzae. As to the kind of experiment: microbe, parasite or virus in culture. To be noted: 120 h, read-out: efficacy (inhibition of fungal growth). In kind it is cell-based.
Series [6] deals with Septoria tritici. Nature of the series: Septoria tritici in vitro cell test. The series is classed as cell-based. The settings on record: Zymoseptoria tritici, 168 h; 20 ppm of active ingredient; 7 days incubation; liquid culture, spectrometric measurement of mycelium growth; read-out: efficacy (inhibition of fungal growth). How it is done:
• Solvent: DMSO • Culture medium: 1 g KH2PO4 (VWR), 1 g K2HPO4 (VWR), 0.5 g Urea (VWR), 3 g KNO3 (Prolabo), 10 g saccharose (VWR), 0.5 g MgSO4, 7H2O (Sigma), 0.07 g CaCl2, 2H2O (Prolabo), 0.2 mg MnSO4, H2O (Sigma), 0.6 mg CuSO4, 5H2O (Sigma), 7.9 mg ZnSO4, 7H2O (Sigma), 0.1 mg H3BO3 (Merck), 0.14 mg NaMoO4, 2H2O (Sigma), 2 mg thiamine (Sigma), 0.1 mg biotine (VWR), 4 mg FeSO4, 7H2O (Sigma), QSP 1 liter • Inoculum: spore suspension Fungicides were solubilized in DMSO and the solution used to prepare the required range of concentrations. […] A spore suspension of S. tritici was prepared and diluted to the desired spore density. Fungicides were evaluated for their ability to inhibit spore germination and mycelium growth in liquid culture assay. The compounds were added in the desired concentration to the culture medium with spores. […] Inhibition of fungal growth was determined by comparing the absorbance values in wells containing the fungicides with the absorbance in control wells without fungicides.

The subject of series [7] is Botrytis cinerea. Nature of the series: Botrytis cinerea in vitro cell test. The series is classed as cell-based. To be noted: 144 h, 20 ppm of active ingredient, 6 days incubation, liquid culture, spectrometric measurement of mycelium growth, read-out: efficacy (inhibition of fungal growth). How it is done:
• Solvent: DMSO • Culture medium: 1 g KH2PO4 (VWR), 1 g K2HPO4 (VWR), 0.5 g Urea (VWR), 3 g KNO3 (Prolabo), 10 g saccharose (VWR), 0.5 g MgSO4, 7H2O (Sigma), 0.07 g CaCl2, 2H2O (Prolabo), 0.2 mg MnSO4, H2O (Sigma), 0.6 mg CuSO4, 5H2O (Sigma), 7.9 mg ZnSO4, 7H2O (Sigma), 0.1 mg H3BO3 (Merck), 0.14 mg NaMoO4, 2H2O (Sigma), 2 mg thiamine (Sigma), 0.1 mg biotine (VWR), 4 mg FeSO4, 7H2O (Sigma), QSP 1 liter • Inoculum: spore suspension Fungicides were solubilized in DMSO and the solution used to prepare the required range of concentrations. […] A spore suspension of B. cinerea was prepared and diluted to the desired spore density. Fungicides were evaluated for their ability to inhibit spore germination and mycelium growth in liquid culture assay. The compounds were added in the desired concentration to the culture medium with spores. After 6 days incubation, fungi-toxicity of compounds was determined by spectrometric measurement of mycelium growth. Inhibition of fungal growth was determined by comparing the absorbance values in wells containing the fungicides with the absorbance in control wells without fungicides.

Series [8] concerns Alternaria brassicae. Nature of the series: In vivo preventive test on Alternaria brassicae (leaf spot on radish or cabbage). The settings on record: 144 h, 500 ppm of active ingredient, preventive spray on young radish or cabbage plants, evaluated 6 days after inoculation, read-out: efficacy. How it is done:
The active ingredients were made soluble and homogenized in a mixture of Dimethyl sulfoxide/Acetone//Tween®80 and then diluted in water to the desired concentration. The young plants of radish or cabbage were treated by spraying the active ingredient prepared as described above. Control plants were treated only with an aqueous solution of Acetone/Dimethyl sulfoxide/Tween® 80. After 24 hours, the plants were contaminated by spraying the leaves with an aqueous suspension of Alternaria brassicae spores.

Series [9] has as its system Pyrenophora teres. As to the kind of experiment: Pyrenophora teres in vitro cell test. In kind it is cell-based. To be noted: 144 h, 20 ppm of active ingredient, 6 days incubation, liquid culture, spectrometric measurement of mycelium growth, read-out: efficacy (inhibition of fungal growth). How it is done:
as §1, with “of P. teres” for “of C. lindemuthianum”, “inhibit spore” for “inhibit spores”

Series [10] has as its system Alternaria alternata. As to the kind of experiment: Alternaria alternata in vitro cell test. In kind it is cell-based. The settings on record: 120 h, 20 ppm of active ingredient, 5 days incubation, liquid culture, spectrometric measurement of mycelium growth, read-out: efficacy (inhibition of fungal growth). The protocol: as §1, with “of A. alternata” for “of C. lindemuthianum”, “inhibit spore” for “inhibit spores”, “After 5” for “After 6”

Series [11] relates to Colletotrichum lindemuthianum. As to the kind of experiment: In vivo preventive test on Colletotrichum lindemuthianum (leaf spot on bean). The settings on record: 168 h, 500 ppm of active ingredient, preventive spray on young bean plants, evaluated 7 days after inoculation, read-out: efficacy. How it is done:
The active ingredients were made soluble and homogenized in a mixture of Dimethyl sulfoxide/Acetone//Tween®80 and then diluted in water to the desired concentration. The young plants of bean were treated by spraying the active ingredient prepared as described above. Control plants were treated only with an aqueous solution of Acetone/Dimethyl sulfoxide/Tween® 80. After 24 hours, the plants were contaminated by spraying the leaves with an aqueous suspension of Colletotrichum lindemuthianum spores.

As a reminder, the inhibition is the change of the read-out against control, counted positive when it falls. A word on the chromatographic logP: it is a lipophilicity value derived from retention on a column. A low value points to a more hydrophilic compound. For the compound `Cc1ccc(CC2CON=C(c3nc(C)ncc3Oc3cccc([N+](=O)[O-])c3)N2)c(C)c1` (racemic) [Compound I-003, (5RS)-5-(2,4-dimethylbenzyl)-3-[2-methyl-5-(3-nitro-phenoxy)pyrimidin-4-yl]-5,6-dihydro-4H-1,2,4-oxadiazine], the pest or weed control at 500 ppm lay in the range of 90 to 100% in [1], 80 to 89% in series [4] and 90 to 100% in series [8]. Further, the inhibition at 20 ppm in [2], in series [5], in [6], in [7], in series [9] and in series [10] was 90 to 100% throughout. This compound showed a chromatographic logP in [3] of 3.78.

`Cc1ncc(Oc2cccc(Cl)c2)c(C2=NOCC(c3ccc4c(c3)CCC4)N2)n1` (racemic) [Compound I-014, (5RS)-3-[5-(3-chlorophenoxy)-2-methyl-pyrimidin-4-yl]-5-indan-5-yl-5,6-dihydro-4H-1,2,4-oxadiazine]: the pest or weed control at 500 ppm in series [1], in [4] and in series [8] was 90 to 100% throughout. Also, the inhibition at 20 ppm in series [2], in series [5], in series [6], in [7], in [9] and in [10] was 90 to 100% each time. Further, the chromatographic logP in series [3] is 4.05.

With `Cc1ncc(Oc2cccc(C(F)(F)F)c2)c(C2=NOC[C@@H](Cc3ccc(OC(F)F)cc3Cl)N2)n1` (racemic) [Compound I-027], the pest or weed control at 500 ppm in series [1], in series [11], in [4] and in [8] was 90 to 100% each time. The compound also had a chromatographic logP in [3] of 4.15. In addition, the inhibition at 20 ppm in series [6], in [7], in series [9] and in series [10] was 90 to 100% in each case.

For the compound `Cc1ncc(Oc2cccc(Cl)c2)c(C2=NO[C@@H](F)[C@@H](c3ccc(Cl)cc3)N2)n1` (racemic) [Compound I-028], in [3], the chromatographic logP stood at 3.79. Also, the inhibition at 20 ppm in series [5], in series [6], in series [7], in [9] and in series [10] was 90 to 100% throughout.

`Cc1ncc(Oc2cccc(Cl)c2)c(C2=NOC[C@@H](c3ccc4c(c3)OCCO4)N2)n1` (racemic) [Compound I-031]: the inhibition at 20 ppm in series [2], in [5], in [7], in [9] and in series [10] was 90 to 100% throughout. The chromatographic logP in series [3] was 3.04.
